The structures appear in SMILES notation.

For assay [1], the target named is FAP enzyme activity in mouse plasma (Mus musculus (Mouse), UniProt P97321). Description: FAP target engagement enzyme activity in mouse plasma after oral dosing. To be noted: male C57Bl/6 mice, single oral dose 3 or 10 mg/kg; estimated from plasma exposure vs FAP activity, Imax fixed to 1; read-out: In vivo Mouse IC50. As to the method: The effect of test compound on FAP enzyme activity in mouse plasma was evaluated in an enzymatic assay using the Fibroblast Activation Protein alpha (FAP) specific fluorogenic substrate dipeptide-Coumarin, Ala-Pro-AMC, (ARI-3144). In this assay, FAP cleaves Ala-Pro-AMC to release free AMC which is measured as a fluorescent signal that correlates with enzyme activity.
Male C57Bl/6 mice (Charles River, Germany), 8 weeks of age, were single housed in a temperature-controlled room with a 12-hour light/dark cycle (06:00-18:00 light). The mice had ad libitum access to water and rodent chow diet (R70, Lactamin, Kimstad, Sweden), and were acclimated for 5 days upon arrival. After acclimation, all mice received a single oral dose of test compound (3 or 10 mg/kg). Blood samples for whole blood compound exposure measurements were taken at 0.25, 0.5, 1, 2, 4, 8 and 24 h post oral dosing. Samples were collected in EDTA capillary tubes (20 μL, K2E, REF 19.447) and were transferred to a 96-deep well plate (NUNC, Thermo Discher Scientific) and stored at −20° C. until further analyses were performed. […]
Recombinant human FAP (PB-17-1837, construct PL-17-0278, cd33-FAP (27-757)-6His, Mw85926 Da) was used as a standard for this assay. […] The plates were read on a Beckman Paradigm reader with excitation 360 nm and emission 465 nm. Fluorescence measurements were performed with kinetic read every 5 minutes for 60 min at room temperature. Data were analyzed in Excel (IDBS XLfit Add-In) using a Linear Regression (y=k*x+m) model to prepare a human recombinant FAP standard curve.
On the day of the assay, plasma was diluted (1:2) to 20 μL volume in buffer (PBS, 0.1% BSA) and 7.5 μL was transferred to the assay plate (384-well black, fluotrack PS, Greiner 781076). […] The plates were read on a Beckman Paradigm reader with excitation 360 nm and emission 465 nm. Fluorescence measurements were performed with kinetic read every 5 minutes for 60 minutes at room temperature. As noted above, FAP cleaves Ala-Pro-AMC to release free AMC which is measured as a fluorescent signal. […]

The target of assay [2] is Prolyl Oligopeptidase (hPREP) (Homo sapiens (Human), UniProt P48147). Description: hPREP inhibition assay. Type of assay: biochemical. The conditions noted are these: hPREP 0.6 nM, Z-Gly-Pro-amino-methylcoumarin 50 μM; read-out: PREP IC50. The method, boiled down: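 Recombinant human PREP at 0.6 nM final, with Z-Gly-Pro-AMC substrate at 50 μM final. Buffer: 25 mM Tris HCl pH 7.5, 250 mM NaCl, 0.01% Triton X-100, 5 mM glutathione. Incubated 20 min at rt in the dark; fluorogenic AMC release read.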

Assay [3] has as its target human dipeptidylpeptidase 8 (hDPP8) (Homo sapiens (Human), UniProt Q6V1X1). Description: hDPP8 inhibition assay. Type of assay: biochemical. To be noted: single concentration 10 μM; n = 1. As to the method: Compounds were tested in a biochemical inhibition assay using human dipeptidylpeptidase 8 (hDPP8) enzyme (BPS Bioscience, #80800) and the substrate Gly-Pro-amino-methylcoumarin (Enzo #BML-P189-0005) at 10 μM FAC. The enzymatic reactions were conducted in duplicate at rt for 20 min in 50 μL assay buffer (50 mM Tris, pH 7.5, 0.1% BSA). Compound solutions (in DMSO), were prepared in assay buffer ten-fold higher than the final concentration, and 5 μL of the dilution was added to a 50 μL reaction so that the compound concentration was 10 μM FAC and the concentration of DMSO was 1% in all wells. The plates were read on a PHERAstarPLUS (BMG) using kinetic mode with excitation 340 nm and emission 460 nm. Data were analyzed in Graph Pad Prism. Raw data signals were normalized using 1% DMSO as 0% control and no enzyme as 100% inhibitor control.

A further assay addresses hFAP (M39-A757) (Homo sapiens (Human), UniProt Q12884).

Chain of FAP enzyme activity in mouse plasma (P97321 24-761 limits assumed): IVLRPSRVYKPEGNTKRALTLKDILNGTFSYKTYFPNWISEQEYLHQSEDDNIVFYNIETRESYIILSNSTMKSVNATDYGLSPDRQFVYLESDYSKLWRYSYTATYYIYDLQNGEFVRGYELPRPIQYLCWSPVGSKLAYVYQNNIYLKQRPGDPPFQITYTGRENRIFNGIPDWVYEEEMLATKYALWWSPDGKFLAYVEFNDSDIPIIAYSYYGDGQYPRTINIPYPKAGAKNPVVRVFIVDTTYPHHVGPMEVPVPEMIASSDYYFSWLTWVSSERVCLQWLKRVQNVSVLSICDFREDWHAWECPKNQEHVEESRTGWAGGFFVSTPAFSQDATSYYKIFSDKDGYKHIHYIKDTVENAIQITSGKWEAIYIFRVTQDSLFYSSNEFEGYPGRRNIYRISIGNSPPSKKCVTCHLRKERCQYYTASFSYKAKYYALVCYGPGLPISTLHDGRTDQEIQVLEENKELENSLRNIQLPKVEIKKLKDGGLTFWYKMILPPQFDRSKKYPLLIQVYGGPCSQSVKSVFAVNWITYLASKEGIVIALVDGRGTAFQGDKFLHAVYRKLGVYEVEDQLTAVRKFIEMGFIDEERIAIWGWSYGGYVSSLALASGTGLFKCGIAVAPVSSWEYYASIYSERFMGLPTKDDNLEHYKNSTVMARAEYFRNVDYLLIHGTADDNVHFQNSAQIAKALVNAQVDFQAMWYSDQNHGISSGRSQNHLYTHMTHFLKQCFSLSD
Chain of Prolyl Oligopeptidase (hPREP) (P48147 whole entry): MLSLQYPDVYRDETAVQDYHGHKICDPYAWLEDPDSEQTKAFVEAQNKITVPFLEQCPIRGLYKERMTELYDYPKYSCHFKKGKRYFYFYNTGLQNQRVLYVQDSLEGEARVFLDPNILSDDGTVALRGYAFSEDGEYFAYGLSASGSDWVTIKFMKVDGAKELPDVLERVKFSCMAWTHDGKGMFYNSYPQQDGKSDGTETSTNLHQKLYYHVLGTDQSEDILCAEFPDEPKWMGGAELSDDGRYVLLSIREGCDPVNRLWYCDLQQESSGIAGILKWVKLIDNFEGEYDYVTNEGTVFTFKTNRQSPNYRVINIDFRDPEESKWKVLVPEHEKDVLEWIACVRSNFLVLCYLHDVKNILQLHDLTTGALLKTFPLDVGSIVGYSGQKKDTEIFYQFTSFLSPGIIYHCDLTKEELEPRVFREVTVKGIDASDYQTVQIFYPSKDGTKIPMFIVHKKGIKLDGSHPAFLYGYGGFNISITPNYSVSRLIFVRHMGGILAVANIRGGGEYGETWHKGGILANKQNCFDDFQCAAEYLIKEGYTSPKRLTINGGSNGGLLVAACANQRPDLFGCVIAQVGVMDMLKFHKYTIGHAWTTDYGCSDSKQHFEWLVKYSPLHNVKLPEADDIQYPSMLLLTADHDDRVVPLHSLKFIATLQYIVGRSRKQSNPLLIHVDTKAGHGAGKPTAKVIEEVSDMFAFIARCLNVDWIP
Chain of human dipeptidylpeptidase 8 (hDPP8) (Q6V1X1 whole entry): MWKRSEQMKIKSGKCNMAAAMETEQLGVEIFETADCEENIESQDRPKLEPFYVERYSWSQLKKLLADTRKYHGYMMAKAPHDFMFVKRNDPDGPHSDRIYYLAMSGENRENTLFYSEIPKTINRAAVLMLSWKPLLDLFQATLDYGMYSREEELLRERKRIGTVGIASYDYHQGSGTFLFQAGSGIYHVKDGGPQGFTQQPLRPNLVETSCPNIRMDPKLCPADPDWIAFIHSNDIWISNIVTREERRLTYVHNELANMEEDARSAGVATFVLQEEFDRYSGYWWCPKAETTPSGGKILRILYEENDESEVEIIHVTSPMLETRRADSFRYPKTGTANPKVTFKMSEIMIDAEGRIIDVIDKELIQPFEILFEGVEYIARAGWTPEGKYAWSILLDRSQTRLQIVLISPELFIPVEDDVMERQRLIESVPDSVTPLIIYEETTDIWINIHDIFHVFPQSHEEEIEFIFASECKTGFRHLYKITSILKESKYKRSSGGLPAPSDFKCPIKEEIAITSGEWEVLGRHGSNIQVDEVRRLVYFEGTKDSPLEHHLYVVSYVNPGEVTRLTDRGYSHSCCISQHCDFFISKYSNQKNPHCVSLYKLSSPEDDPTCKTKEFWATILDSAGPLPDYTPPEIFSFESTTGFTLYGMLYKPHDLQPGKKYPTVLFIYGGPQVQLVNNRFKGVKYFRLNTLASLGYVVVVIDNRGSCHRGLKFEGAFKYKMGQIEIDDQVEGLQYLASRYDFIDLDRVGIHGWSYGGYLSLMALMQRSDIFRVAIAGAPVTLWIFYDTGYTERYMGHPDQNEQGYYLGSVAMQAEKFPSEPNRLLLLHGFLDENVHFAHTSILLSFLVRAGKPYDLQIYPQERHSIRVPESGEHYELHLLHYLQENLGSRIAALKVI
Chain of hFAP (M39-A757) (Q12884 39-757): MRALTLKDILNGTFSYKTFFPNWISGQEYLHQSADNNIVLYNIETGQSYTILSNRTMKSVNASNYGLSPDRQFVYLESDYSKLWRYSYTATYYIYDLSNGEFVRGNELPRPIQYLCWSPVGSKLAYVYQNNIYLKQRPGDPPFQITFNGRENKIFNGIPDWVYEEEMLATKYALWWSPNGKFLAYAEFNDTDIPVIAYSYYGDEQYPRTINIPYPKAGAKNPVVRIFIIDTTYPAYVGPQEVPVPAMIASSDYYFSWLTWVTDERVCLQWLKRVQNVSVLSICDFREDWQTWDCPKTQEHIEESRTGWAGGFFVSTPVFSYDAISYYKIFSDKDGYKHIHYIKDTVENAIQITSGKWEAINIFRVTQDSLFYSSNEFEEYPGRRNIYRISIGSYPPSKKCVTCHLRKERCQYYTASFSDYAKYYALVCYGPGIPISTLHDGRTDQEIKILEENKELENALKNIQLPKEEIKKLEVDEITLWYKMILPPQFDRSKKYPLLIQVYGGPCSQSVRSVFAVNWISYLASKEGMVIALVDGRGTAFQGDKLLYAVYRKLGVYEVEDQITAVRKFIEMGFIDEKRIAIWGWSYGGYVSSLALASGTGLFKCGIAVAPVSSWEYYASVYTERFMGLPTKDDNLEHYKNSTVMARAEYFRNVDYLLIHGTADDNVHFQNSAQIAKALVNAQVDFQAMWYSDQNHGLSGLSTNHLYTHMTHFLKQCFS
Experimental for hFAP (M39-A757): Compounds were tested in a direct binding assay using 8K surface plasmon resonance biosensor (GE Healthcare) at 20° C. Immobilization of hFAP (M39-A757) on a CMD200M sensor chip (Xantec) was performed using standard amine coupling procedure in immobilization buffer (10 mM HEPES, 150 mM NaCl, 0.05% Tween20, pH 7.4). The surface was washed with 10 mM NaOH, 1M NaCl before being activated with EDC/NHS (GE Healthcare), followed by immobilization of hFAP (in 10 mM Acetate pH 5.0). Finally, the surface was deactivated by ethanolamine. Immobilization levels of hFAP were around 4000-6000 RU. The reference spot was treated as described, omitting the injection of hFAP. Compound concentration series were injected over the immobilized protein in increasing concentrations (2-500 nM) using single cycle kinetics in running buffer (20 mM TRIS, 150 mM NaCl, 0.05% Tween20, 1% DMSO, pH 7.4). Interaction models were fitted globally to the experimental traces, enabling determination of kon, koff and Kd.

A word on the IC50: it is the point on the concentration scale where inhibition reaches its midpoint. As to `Cc1ccc2c(C(=O)NCC(=O)N3[C@H](C#N)C[C@@H]4C[C@@H]43)ccnc2c1` [Example 20, N-(2-((1S,3S,5S)-3-Cyano-2-azabicyclo[3.1.0]hexan-2-yl)-2-oxoethyl)-7-methylquinoline-4-carboxamide], the IC50 was 3 nM in assay [1] and 31000 nM in assay [2]. Besides, the “hDPP8 Activity at Compound Concentration 10 μM” value in assay [3] is listed as “Not Active”.

Broadly, the Kd is the concentration at which binding is half-saturated. Higher therefore signals a looser complex. Regarding `N#C[C@@H]1C[C@@H]2C[C@@H]2N1C(=O)CNC(=O)c1ccnc2cc(C3(C#N)CC3)ccc12` [Example 40, N-(2-((1S,3S,5S)-3-Cyano-2-azabicyclo[3.1.0]hexan-2-yl)-2-oxoethyl)-7-(1-cyanocyclopropyl)quinoline-4-carboxamide], the values for the IC50 in assay [1] and in assay [2] were 36 nM and greater than 50000 nM, respectively. The molecule further returned a Kd on hFAP (M39-A757) of 5.5 nM.
